Literature values as cited in patent publication US20070042451A1, “Glycine decarboxylase complex as a herbicidal target” (BASF Aktiengesellschaft, priority 2003, published 2007).

System: glycine decarboxylase complex
Conditions: Navarre and Wolpert 1995

For victorine, the “in vitro inhibition of the GDC activity” value is given as “inhibition of the GDC activity”.
